We go through 5 compounds from ChEMBL document CHEMBL2429852, “Synthesis and evaluation of new chalcones, derived pyrazoline and cyclohexenone derivatives as potent antimicrobial, antitubercular and antileishmanial agents” (Med Chem Res, 2013).

The nature of data set [1]: Cytotoxicity against mouse J774A1 cells after 72 hrs by MTT assay. Type of data set: cell-based, J774.A1. Background: Tetrazolium assays rely on reduction of a dye to a coloured formazan, in cell work by metabolically active cells.
A short description of data set [2]: Selectivity index, ratio of CC50 for mouse J774A1 cells to IC50 for promastigote stage of Leishmania braziliensis H3. In kind it is functional, J774.A1.
For data set [3], the system named is Mycobacterium tuberculosis. As to the kind of experiment: Antitubercular activity against Mycobacterium tuberculosis H37Rv assessed as growth inhibition after 12 to 28 days by Lowenstein-Jensen agar method. Type of data set: functional. As to conditions: for MIC: Mycobacterium tuberculosis, H37Rv; call rule not given here.
The next data set concerns Leishmania braziliensis. Description: Antileishmanial activity against promastigote stage of Leishmania braziliensis H3 assessed as parasite growth inhibition after 72 hrs by Neubauer chamber counting method. Type of data set: functional, organism-based.
The subject of data set [4] is Candida albicans. Description: Potency index, ratio of griseofulvin MIC to compound MIC for Candida albicans MTCC 227. Type of data set: functional.
For another data set, the system named is Aspergillus niger. Description: Antifungal activity against Aspergillus niger MTCC 282 assessed as growth inhibition by broth microdilution method. In kind it is functional. (In general: In broth dilution the organism is exposed to a series of concentrations in liquid medium.)
The next data set deals with Aspergillus clavatus. Description: Antifungal activity against Aspergillus clavatus MTCC 1323 assessed as growth inhibition by broth microdilution method. In kind it is functional.
For data set [5], the system named is Candida albicans. As to the kind of experiment: Antifungal activity against Candida albicans MTCC 227 assessed as growth inhibition by broth microdilution method. Type of data set: functional.
The test system of data set [6] is Pseudomonas aeruginosa. Description: Antibacterial activity against Pseudomonas aeruginosa MTCC 2488 assessed as growth inhibition by broth microdilution method. In kind it is functional.
For data set [7], the system named is Escherichia coli. Description: Antibacterial activity against Escherichia coli MTCC 442 assessed as growth inhibition by broth microdilution method. Type of data set: functional.
Data set [8] has as its system Streptococcus pyogenes. Description: Antibacterial activity against Streptococcus pyogenes MTCC 443 assessed as growth inhibition by broth microdilution method. Type of data set: functional.
The subject of data set [9] is Staphylococcus aureus. As to the kind of experiment: Antibacterial activity against Staphylococcus aureus MTCC 96 assessed as growth inhibition by broth microdilution method. Type of data set: functional.
Data set [10] deals with Pseudomonas aeruginosa. As to the kind of experiment: Potency index, ratio of ampicillin MIC to compound MIC for Pseudomonas aeruginosa MTCC 2488. In kind it is functional.
Data set [11] concerns Staphylococcus aureus. As to the kind of experiment: Potency index, ratio of ampicillin MIC to compound MIC for Staphylococcus aureus MTCC 96. Type of data set: functional.
Data set [12] deals with Escherichia coli. As to the kind of experiment: Potency index, ratio of ampicillin MIC to compound MIC for Escherichia coli MTCC 442. Type of data set: functional.
The subject of data set [13] is Streptococcus pyogenes. Description: Potency index, ratio of ampicillin MIC to compound MIC for Streptococcus pyogenes MTCC 443. Type of data set: functional.
[14] abbreviates: Leishmania braziliensis, H3, 72 h, read-out: IC50.

≈ marks a conversion by molar mass, not a printed value.

`COc1cc(/C=C/C(=O)c2cccc([N+](=O)[O-])c2)cc(OC)c1OC` displayed a CC50 at 72 h in data set [1] of 49 µM. In addition, the “Ratio CC50/IC50” value in [2] turned out to be 5.26. The “growth inhibition (GI)” value in [3] was determined as 99%. In addition, the MIC in data set [3] is 25 µg/mL (≈ 72.8 µM). The half-inhibitory concentration (IC50) in the data set with Leishmania braziliensis (setting [14]) is 9.3 µM. Besides, the Ratio in the data set with Candida albicans [4] was determined as 2. Also, the MIC99 is greater than 1000 µg/mL in the data set on Aspergillus niger; greater than 1000 µg/mL in the data set with Aspergillus clavatus; 250 µg/mL with Candida albicans [5]; 250 µg/mL in the data set with Pseudomonas aeruginosa [6]; 250 µg/mL in the data set on Escherichia coli [7]; 100 µg/mL with Streptococcus pyogenes [8]. Moreover, in the data set with Staphylococcus aureus [9], the MIC99 was 100 µg/mL.

For the compound `O=[N+]([O-])c1cccc(C2=NNC(c3ccc4ccccc4c3)C2)c1` (stereo not drawn), the “growth inhibition (GI)” value in data set [3] is on record as 99%. In addition, the MIC in [3] turned out to be 62.5 µg/mL (≈ 197 µM). Further, the IC50 result in the data set with Leishmania braziliensis is “Not Active”. Besides, the Ratio came out at 5 in the data set with Candida albicans [4], 4 in the data set on Pseudomonas aeruginosa [10] and 2 with Staphylococcus aureus [11]. Moreover, the MIC99 worked out at 100 µg/mL in the data set with Aspergillus niger; 250 µg/mL in the data set on Aspergillus clavatus; 100 µg/mL in the data set on Candida albicans [5]; 25 µg/mL in the data set with Pseudomonas aeruginosa [6]; 250 µg/mL in the data set on Escherichia coli [7]; 125 µg/mL in the data set with Streptococcus pyogenes [8]. In addition, the MIC99 in the data set on Staphylococcus aureus [9] was 50 µg/mL.

`COc1ccc(/C=C/C(=O)c2cccc([N+](=O)[O-])c2)c(OC)c1OC`: the cytotoxic concentration (CC50) at 72 h in data set [1] was 89.5 µM. Also, in data set [2], the “Ratio CC50/IC50” value is on record as 10.06. Besides, the “growth inhibition (GI)” value in data set [3] is 98%. Moreover, the MIC in [3] worked out at 500 µg/mL (≈ 1460 µM). The IC50 in the data set on Leishmania braziliensis (setting [14]) was determined as 8.9 µM. Moreover, the MIC99 with Aspergillus niger is greater than 1000 µg/mL; in the data set on Aspergillus clavatus, greater than 1000 µg/mL; in the data set on Candida albicans [5], 1000 µg/mL; in the data set on Pseudomonas aeruginosa [6], 200 µg/mL; in the data set with Escherichia coli [7], 200 µg/mL; in the data set with Streptococcus pyogenes [8], 250 µg/mL. The MIC99 with Staphylococcus aureus [9] worked out at 250 µg/mL.

As for `CC(=O)N1N=C(c2cccc([N+](=O)[O-])c2)CC1/C=C/c1ccccc1` (stereo not drawn), in [3], the “growth inhibition (GI)” value is 98%. In addition, the MIC in data set [3] was 250 µg/mL (≈ 745 µM). In addition, the IC50 entry with Leishmania braziliensis is on record as “Not Active”. Also, the Ratio in the data set on Candida albicans [4] was 2; in the data set on Escherichia coli [12] it was 4; with Streptococcus pyogenes [13], 5. Also, the MIC99 in the data set on Aspergillus niger is greater than 1000 µg/mL; in the data set with Aspergillus clavatus it was greater than 1000 µg/mL; in the data set with Candida albicans [5], 500 µg/mL; with Pseudomonas aeruginosa [6] it was 100 µg/mL; with Escherichia coli [7], 62.5 µg/mL; in the data set on Streptococcus pyogenes [8], 25 µg/mL. For the same compound, in the data set on Staphylococcus aureus [9], the MIC99 was 250 µg/mL.

In the case of `O=C(/C=C/c1ccc2ccccc2c1)c1cccc([N+](=O)[O-])c1`, the “growth inhibition (GI)” value in [3] is recorded as 98%. In addition, the MIC in data set [3] was determined as 500 µg/mL (≈ 1650 µM). For the same compound, the IC50 result in the data set with Leishmania braziliensis was “Not Active”. The MIC99 with Aspergillus niger turned out to be 1000 µg/mL; in the data set with Aspergillus clavatus it was 1000 µg/mL; in the data set with Candida albicans [5] it was 500 µg/mL; in the data set with Pseudomonas aeruginosa [6] it was 200 µg/mL; with Escherichia coli [7], 62.5 µg/mL; in the data set with Streptococcus pyogenes [8], 125 µg/mL. The MIC99 with Staphylococcus aureus [9] was 100 µg/mL. Moreover, the Ratio in the data set with Escherichia coli [12] and with Staphylococcus aureus [11] was 2 throughout.

Usually CC50 stands for the concentration giving 50% cytotoxicity. Low readings indicate harm at low concentration, high ones better tolerance by the cells. As usually defined, the MIC is the lowest concentration that inhibits growth of the organism. The term IC50 denotes the concentration that gives 50% inhibition. By MIC99 is commonly meant the lowest concentration that inhibits either 99% of growth or 99% of the strains tested, depending on the study.
